Experimental data published in patent publication US12018058B2, “Compositions and methods for diagnosing and/or treating kidney injury” (Boston Medical Center Corporation, priority 2018, dated 2024).
Square brackets hold non-standard residues; d marks the D form. Peptide text beside a SMILES is read from it. βAla = NCCC(=O)O

Tests used:
[1] = system: mitochondrial Bax accumulation; test: NPM and Bax accumulation in mitochondria isolated from PTEC after ischemic stress; type: cell-based; details: mitochondria isolated from human PTEC after ischemic stress
Text: NPM is a relevant therapeutic target in human AKI. Primary human proximal tubule epithelial cells (PTEC) derived from cadaveric kidneys were subjected to ischemic stress (transient ATP depletion) in the presence of specific NPM siRNA or non-sense siRNA. […] Thus, manipulating NPM is an effective maneuver. […] Small peptides of 30 amino acids or less are sufficiently specific to minimize off target effects and also reduce the risk of eliciting an antibody response that causes tachyphylaxis. Peptides were commercially synthesized and fused to a nuclear localizing sequence (this NLS has no functional relationship to the “NPM NLS” that regulates NPM translocation). The NLS-CPP markedly increases renal accumulation of small peptides8 as well as in the proximal tubule. […] To determine its effect on NPM-Bax complex formation, active Bax was immunoprecipitated from PTEC rendered ischemic with an antibody directed against the 6A7 epitope. The precipitates were subjected to immunoblot analysis using an anti-NPM antibody. […] NPM and Bax accumulation was measured in mitochondria isolated from human PTEC after ischemic stress. […] This is likely due to the prolonged half-life (about 80 hr) of the peptide in vitro and in vivo due to the presence of an AC modification slows degradation.

[2] = system: mice subjected to bilateral renal pedicle clamping; test: Ischemic AKI by bilateral renal pedicle clamping (BUN, creatinine, survival); type: in vivo, C57BL/6J mice; details: for Renal function (serum BUN): days 1-7 post-ischemia, single i.v. dose 100 μg/g within 3 h after 28 min ischemia, versus control peptide; for Animals surviving severe ischemic AKI: single dose 0-3 hours after releasing clamps; for Animal deaths on day 1 post-AKI / Survival / Total deaths / Animal deaths on day 2 post-AKI / Animal deaths on day 3 post-AKI: n = 8; for Animal deaths on day 1 post-AKI / Animal deaths on day 2 post-AKI / Animal deaths on day 3 post-AKI: 28 min renal ischemia; for Survival: 7 d; for Total deaths: recorded for 7 d
Text: All animals were maintained under the guidance and policies of the Boston University Animal Core facility using National Institutes of Health (NIH) and Institutional Animal Care and Use Committee guidelines. Male and female C57BL/6J mice were purchased from Jackson Laboratory (Bar Harbor, ME), and they were housed and bred at the Boston University Animal Core facility under license number AN-15024. […] Animas were handled in a manner consistent with the NIH guide for their care and use under Institutional Animal Care and Use Committee approval.
Mice were subjected to bilateral renal pedicle clamping after being anesthetized with 2,2,2-tribromoethanol. […] 13,28,29 Slight variation in the clamp time was required to achieve similar degrees of renal dysfunction in the relatively large number of animals studied. The clamp was then removed, and reperfusion was confirmed by visual inspection of the kidneys. Sham ischemia was performed by encircling each renal pedicle with a nonocclusive ligature.
For in vitro testing in primary human PTECs, peptides ([…]) were tested that replicate the Bax domain responsible for binding NPM,34 or two peptides designed to interfere with NPM function were compared with a random nonspecific sequence of the same length (control). Peptides intended to interfere with NPM function overlap key phosphorylation sites located at the NPM amino terminus (peptide 2) or carboxy terminus (peptide 3) detected by mass spectrometry. To improve cell uptake, all peptides contained a cell-penetrating sequence13. For in vivo experiments, a renal-targeting sequence (NLS) was added to enhance renal peptide uptake.35 Peptides were commercially synthesized (Biomatik, Wilmington, DE) J Am Soc Nephrol 30: ccc-ccc, 2018 Nucleophosmin in AKI 3www.jasn.org BASIC RESEARCHas follows: NPM-Bax blocking peptide: Ac-KKKRKV-(bA)-[…]-COOH (SEQ ID NO: 8); peptide 2: AC-PKKKRKV-(bA)-[…]-COOH (SEQ ID NO: 9); and peptide 3: AC-PKKKRKV-(bA)-ESFKK-QEKTPKTPKGPSSVED-IKAK-COOH (SEQ ID NO: 10). […] A total of 42 control and 56 experimental animals were studied.
Transient exposure to metabolic inhibitors replicates ischemia in vivo by activating Bax and causing cell death.13,29,36-38 Cell viability was assayed using a modified colorimetric technique (MTTassay).37 The number of surviving cells is expressed as a percentage of viable control cells detected at baseline. Serum BUN and creatinine levels were measured in tail vein blood samples for 7 days after ischemia using QuantiChrom BUN or creatinine assay kits (BioAssay Systems, Hayward, CA) according to the manufacturer's instructions.

NPM-Bax complex = biological target: T1, NPM-Bax complex (Homo sapiens, UniProt P06748); test: NPM-Bax interaction, active Bax immunoprecipitates from PTEC lysates after ATP depletion; type: cell-based; details: for Bax-NPM interaction in renal epithelial cells in vitro: PTEC, 60 min ATP depletion plus 30 min recovery, FIG. 9A
T1 construct: endogenous in cells; host or cells: primary human proximal tubule epithelial cells (PTEC), ATP-depleted
T1 sequence (P06748 whole entry, one chain of several): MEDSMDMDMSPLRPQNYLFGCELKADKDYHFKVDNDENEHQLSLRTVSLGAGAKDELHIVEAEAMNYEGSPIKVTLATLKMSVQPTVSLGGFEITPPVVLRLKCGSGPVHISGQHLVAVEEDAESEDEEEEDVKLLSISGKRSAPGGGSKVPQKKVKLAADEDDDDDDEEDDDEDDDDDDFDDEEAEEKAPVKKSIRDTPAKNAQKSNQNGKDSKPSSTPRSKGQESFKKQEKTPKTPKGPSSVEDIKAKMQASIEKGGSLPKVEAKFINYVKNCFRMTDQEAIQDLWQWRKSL
Method: Similar amounts of Bax were detected in each lane, and input protein amounts for each sample were identical. IB, immunoblot; IP, immunoprecipitation.
Cell, tissue, and urinary proteins were harvested using PD buffer containing 40 mM Tris-HCl, pH 8.0, 500 mM NaCl, 0.1% Nonidet P-40, 6 mM EGTA, and a protease inhibitor cocktail (Set I; Calbiochem, San Diego, CA). NPM was immunoprecipitated overnight with NPM antibodies (catalog no. B0556; Sigma-Aldrich) in the presence of protein A/G-agarose beads at 4° C. NPM accumulation was measured in cytosolic samples extracted with low-dose digitonin ([…]).13 Cytosolic proteins were extracted from renal cortical tissue samples using an extraction kit (Biochain Institute, Newark, CA). Briefly, 50-100 mg of kidney cortex tissue was minced on ice and spin washed with 1 ml ice-cold wash buffer before adding […] of buffer C. The mixture was rotated at 4° C. for 20 minutes and then centrifuged at 18,0003 g at 4° C. for 20 minutes before being harvested. Protein levels were measured with the bicinchoninic acid assay (Thermo Scientific, Rockford, IL).

[3] = 28 min bilateral pedicle clamping

In the case of `CC[C@H](C)[C@H](NC(=O)[C@@H](NC(=O)[C@H](CC(C)C)NC(=O)[C@H](CO)NC(=O)[C@H](C)NC(=O)[C@@H](NC(=O)[C@H](CC(C)C)NC(=O)[C@@H](NC(=O)CNC(=O)[C@H](C)NC(=O)[C@@H](NC(=O)[C@H](Cc1ccccc1)NC(=O)[C@@H](NC(=O)[C@@H](NC(=O)[C@@H](NC(=O)[C@@H](NC(=O)CCNC(=O)[C@@H](NC(=O)[C@H](CCCCN)NC(=O)[C@H](CCCNC(=N)N)NC(=O)[C@H](CCCCN)NC(=O)[C@H](CCCCN)NC(=O)[C@H](CCCCN)NC(C)=O)C(C)C)[C@@H](C)O)C(C)C)[C@@H](C)O)[C@@H](C)CC)C(C)C)C(C)C)[C@@H](C)O)[C@@H](C)O)C(=O)N[C@@H](Cc1c[nH]c2ccccc12)C(=O)N[C@@H](CCCCN)C(=O)N[C@@H](CCCCN)C(=O)N[C@@H](CCSC)C(=O)NCC(=O)O` [Peptide #1] (Ac-KKKRKV[βAla]TVTIFVAGVLTASLTIWKKMG-OH), the “Mitochondrial Bax and NPM accumulation” value [1] was “decreased mitochondrial Bax accumulation to a greater extent than it reduced NPM accumulation”, the Animals surviving ([2]; 22 min bilateral renal ischemia) was 98% and the Animal survival [2, 3] was “all survived”. The “Mean peak BUN” value [2, 3] was 100 m/dl, the Serum creatinine ([2]; day 1, peptide administered 3 hours after ischemia, versus control) was “significantly reduced” and the “Reduction of serum creatinine” value ([2]; day 1 post-ischemia, single dose after 28 min ischemia) was roughly 50%. For the same compound, the “Improvement of BUN” value ([2]; days 1-6, IV within 3 hr after 22 min bilateral renal ischemia, versus random peptide) was 15-35%, the “Renal function (serum BUN)” value ([2]; listed as Blocking peptide) was “significantly improved renal function” and the “Renal function (serum BUN)” value ([2]; listed as renal targeted peptide designed to interfere with Bax-NPM complex formation) was “significantly lower BUN levels”. The “Additional protection from higher or repeated dose” value ([2]; dose above 2 mg/animal (7 μM) or second dose within 24 hr, ischemic PTEC or mice) was “did not provide additional protection”, the “Protection against lethal renal ischemia (animal survival)” value (from here on “Protection against lethal renal ischemia”) ([2]; dose administered at 0, 1, 2 or 3 h post-ischemia, listed as Blocking peptide) was “significant protection” and the “Protection against lethal renal ischemia” value ([2]; dose administered at 0, 1, 2 or 3 h post-ischemia, listed as blocking peptide) was “for 7-d post-pedicle clamp release; no deaths were observed after 3 d. Significant protection”. The “Reduction of AKI severity” value ([2]; mice, administered before the insult) was 40-50%, the “Improvement of kidney function (reduced both BUN and creatinine)” value ([2]; mouse, in vivo) was 50% and the “Recovery of renal function” value ([2]; peptide-treated animals) was “complete”. For the same compound, the “Time recovery of renal function was sustained” value ([2]; peptide-treated animals) was “at least 4 weeks”, the “Protection against lethal renal ischemia” value ([2]; same dose administered 4, 5, or 6 h after ischemia, listed as Blocking peptide) was “no protection was observed” and the “Protection against lethal renal ischemia” value ([2]; same dose administered 4, 5, or 6 h after ischemia, listed as blocking peptide) was 3 h post-AKI (P, 0.05); the blocking peptide was not protective if administered at 4, 5, or 6 h. The “Animals surviving severe ischemic AKI” value ([2]; 28 min ischemia, listed as Blocking peptide) was 88%, the “Animals surviving severe ischemic AKI” value ([2]; 28 min ischemia, listed as NPM inhibitor peptide) was 75%-88% and the “Animal deaths on day 1 post-AKI” value ([2]; single dose 0 h post-AKI) was 1. The Survival ([2]; single dose 0 h post-AKI) was 88%, the Total deaths ([2]; single dose 0 h post-AKI) was 1 and the “Animal deaths on day 1 post-AKI” value ([2]; single dose 1 h post-AKI) was 1. For the same compound, the “Animal deaths on day 2 post-AKI” value ([2]; single dose 1 h post-AKI) was 1, the Survival ([2]; single dose 1 h post-AKI) was 75% and the Total deaths ([2]; single dose 1 h post-AKI) was 2. The “Animal deaths on day 2 post-AKI” value ([2]; single dose 2 h post-AKI) was 1, the Survival ([2]; single dose 2 h post-AKI) was 88% and the Total deaths ([2]; single dose 2 h post-AKI) was 1. For the same compound, the “Animal deaths on day 2 post-AKI” value ([2]; single dose 3 h post-AKI) was 1, the Survival ([2]; single dose 3 h post-AKI) was 88% and the Total deaths ([2]; single dose 3 h post-AKI) was 1. For the same compound, the “Animal deaths on day 1 post-AKI” value ([2]; single dose 4 h post-AKI) was 1, the “Animal deaths on day 2 post-AKI” value ([2]; single dose 4 h post-AKI) was 4 and the “Animal deaths on day 3 post-AKI” value ([2]; single dose 4 h post-AKI) was 3. The Survival ([2]; single dose 4 h post-AKI) was 0%, the Total deaths ([2]; single dose 4 h post-AKI) was 8 and the “Animal deaths on day 1 post-AKI” value ([2]; single dose 5 h post-AKI) was 1. The “Animal deaths on day 2 post-AKI” value ([2]; single dose 5 h post-AKI) was 6, the Survival ([2]; single dose 5 h post-AKI) was 13% and the Total deaths ([2]; single dose 5 h post-AKI) was 7. For the same compound, the “Animal deaths on day 1 post-AKI” value ([2]; single dose 6 h post-AKI) was 1, the “Animal deaths on day 2 post-AKI” value ([2]; single dose 6 h post-AKI) was 4 and the “Animal deaths on day 3 post-AKI” value ([2]; single dose 6 h post-AKI) was 2. For the same compound, the Survival ([2]; single dose 6 h post-AKI) was 13%, the Total deaths ([2]; single dose 6 h post-AKI) was 7 and the Animal survival ([2]; single dose within 3 hours postischemia, 28 min ischemia, versus control) was “dramatically improved animal survival”. The “Decrease of NPM-Bax complex formation in vitro” value (NPM-Bax complex; FIG. 9) was “about 50%”, the “Bax-NPM interaction in renal epithelial cells in vitro” value (from here on “Bax-NPM interaction”) (NPM-Bax complex) was “markedly decreases” and the “Bax-NPM interaction” value (NPM-Bax complex; listed as Blocking peptide) was “markedly reduced”. For the same compound, the “Bax-NPM interaction” value (NPM-Bax complex; listed as NPM-Bax blocking peptide (Peptide #1)) was “decreases”.
